This is an account of results in ChEMBL document CHEMBL1142677, “Synthesis, antitumor evaluation, and apoptosis-inducing activity of hydroxylated (E)-stilbenes” (2005).

Experiment [1] is described as follows: In vitro growth inhibitory concentration against human mammary carcinoma cell line MDA MB 468 using MTT assay. In kind it is functional.
A short description of experiment [2]: In vitro growth inhibitory concentration against human mammary carcinoma cell line MDA MB 468. Format: functional.
Experiment [3] deals with HCT-116. In words: In vitro growth inhibitory concentration against human colon cancer cell line HCT 116. Format: functional.
Experiment [4] is described as follows: Percent of apoptosis in MDA MB 468 Cell line determined by Annexin-V-FITC/PI analysis at 10 uM. In kind it is functional, Homo sapiens.
Experiment [5] can be described thus: Percent of apoptosis in MDA MB 468 Cell line determined by Annexin-V-FITC/PI analysis at 250 nM. In kind it is functional, Homo sapiens.

Bounds are passed on as bounds.

Regarding `Oc1cccc(/C=C/c2ccc(F)c(F)c2)c1`, the GI50 in experiment [1] came out at 1600 nM. For the molecule `Oc1ccc(/C=C/c2cc(O)cc(O)c2)cc1` [RESVERATROL], the GI50 in experiment [2] and in experiment [3] was more than 40 µM throughout. In addition, the Apoptosis in experiment [4] amounted to 4%.

The molecule `COc1ccccc1/C=C/c1cccc(O)c1` showed an Apoptosis in experiment [4] of 20%. `Oc1ccccc1/C=C/c1ccc(F)c(F)c1` came in with a GI50 in experiment [1] of 1100 nM. Regarding `Oc1cccc(/C=C/c2ccccc2F)c1`, the GI50 in experiment [1] worked out at 1400 nM. In experiment [1], `COc1cc(/C=C/c2cccc(O)c2)cc(OC)c1` had a GI50 of 960 nM. With `CC[C@@]1(O)C(=O)OCc2c1cc1n(c2=O)Cc2cc3ccccc3nc2-1` [CAMPTOTHECIN], the Apoptosis in experiment [5] was 37%.
